Experimental data as given in patent publication US4210660A, “Benzamide derivatives” (Yamanouchi Pharmaceutical Co., Ltd., priority 1978, dated 1980).
Where two headings read alike, the source gives them in different places.

Tested on: apomorphine-induced stereotyped behavior
Assay: Activity in reducing apomorphine-induced stereotyped behavior (method of Janssen et al.)
Assay type: in vivo, rats (male, Wistar)
Settings: sc
Excerpt: In the following Experiment I, the compounds of this invention were compared with chlorpromazine which is a typical antipsychotic and other known structurally similar compounds in their activity in reducing apomorphine-induced stereotyped behavior.

[1] = test sample subcutaneous to rat, after 30 minutes 1.25 mg/kg apomorphine intravenously, observed 5, 10 and 20 minutes later, read-out: ED50

Row | Structure (SMILES) | ED50 (Rattus norvegicus) | ED50 [1]
1 | CN(C)CCCN1c2ccccc2Sc2ccc(Cl)cc21 [Chlorpromazine] | 2.5 mg/kg | 
2 | CNc1cc(OC)c(C(=O)NC2CCN(Cc3ccccc3)C2C)cc1Cl (stereo not shown) [Example 3, N-(1-benzyl-2-methylpyrrolidin-3-yl)-5-chloro-2-methoxy-4-methylaminobenzamide] |  | 0.01 mg/kg
3 | CCN1CCCC1CNC(=O)c1cc(S(N)(=O)=O)ccc1OC (stereo not shown) [Sulpiride] |  | > 100 mg/kg
4 | CCN1CCCC1CNC(=O)c1cc(S(=O)(=O)CC)ccc1OC (stereo not shown) [Sultopiride] |  | 18 mg/kg
